{"source": "patent US8546381B2", "about": "“Bridged heterocyclic compounds and methods of use” (Medivation Technologies, Inc., priority 2008, dated 2013)", "key": {"[1]": {"target": "T1, rat adrenergic α1A receptor (Rattus norvegicus, UniProt P43140)", "T1 construct": "obtained from Wistar Rat submaxillary glands; from tissue; host or cells: Wistar rat submaxillary glands", "T1 sequence (P43140 1-466)": "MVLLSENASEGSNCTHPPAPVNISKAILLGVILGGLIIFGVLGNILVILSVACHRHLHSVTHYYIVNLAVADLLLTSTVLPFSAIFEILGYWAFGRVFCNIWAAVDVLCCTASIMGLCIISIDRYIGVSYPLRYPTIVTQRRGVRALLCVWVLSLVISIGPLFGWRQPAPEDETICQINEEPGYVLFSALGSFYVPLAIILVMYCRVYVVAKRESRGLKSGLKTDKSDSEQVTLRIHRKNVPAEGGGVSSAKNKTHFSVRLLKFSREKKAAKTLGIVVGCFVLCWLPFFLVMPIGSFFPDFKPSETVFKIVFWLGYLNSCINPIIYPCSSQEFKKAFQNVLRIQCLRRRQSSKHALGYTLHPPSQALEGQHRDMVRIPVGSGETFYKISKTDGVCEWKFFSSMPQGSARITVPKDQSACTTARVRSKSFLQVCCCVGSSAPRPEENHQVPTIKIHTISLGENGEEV", "experiment": "Adrenergic α1A radioligand binding ([3H]Prozosin)", "settings": "for inhibition at 1 µM: read-out: Adrenergic α1A, inhibition of ligand binding (1 μM)", "procedure": "(§1) To evaluate in radioligand binding assays the activity of compounds of the invention, rat adrenergic α1A receptor obtained from Wistar Rat submaxillary glands (Michel, A. D. et al., Br. J. Pharmacol. 98:883, 1989) in a modified Tris-HCl buffer (50 mM Tris-HCl buffer, pH 7.4, 0.5 mM EDTA) was used. Compounds of the invention were incubated with 0.25 nM [^3H]Prozosin for 60 minutes at 25° C. Non-specific binding was estimated in the presence of 10 μM phentolamine. Receptor proteins were filtered and washed, the filters were then counted to determine [^3H]Prozosin specifically bound. Compounds of the invention were screened at 1 μM or lower, using 1% DMSO as vehicle. Compounds of the invention were tested in this biochemical assay and percent inhibition of specific binding was determined."}, "[2]": {"target": "T2, rat adrenergic α1B receptor (Rattus norvegicus, UniProt P15823)", "T2 construct": "obtained from Wistar Rat liver; from tissue; host or cells: Wistar rat liver", "T2 sequence (P15823 1-515)": "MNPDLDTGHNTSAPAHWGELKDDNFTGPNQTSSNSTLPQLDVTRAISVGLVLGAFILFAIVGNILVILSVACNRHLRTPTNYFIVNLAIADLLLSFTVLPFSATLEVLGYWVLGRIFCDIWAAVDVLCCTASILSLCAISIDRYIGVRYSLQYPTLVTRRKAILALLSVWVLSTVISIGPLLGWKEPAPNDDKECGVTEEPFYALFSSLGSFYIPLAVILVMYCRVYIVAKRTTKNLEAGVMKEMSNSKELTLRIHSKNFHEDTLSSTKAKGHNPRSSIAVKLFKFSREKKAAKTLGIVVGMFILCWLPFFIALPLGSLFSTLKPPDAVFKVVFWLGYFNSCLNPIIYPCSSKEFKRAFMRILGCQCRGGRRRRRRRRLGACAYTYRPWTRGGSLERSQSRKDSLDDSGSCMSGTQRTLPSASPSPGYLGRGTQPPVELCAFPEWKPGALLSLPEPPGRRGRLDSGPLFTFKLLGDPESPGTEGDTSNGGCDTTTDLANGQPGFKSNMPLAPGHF", "experiment": "Adrenergic α1B radioligand binding ([3H]Prozosin)", "settings": "for inhibition at 1 µM: read-out: Adrenergic α1B, inhibition of ligand binding (1 μM)", "procedure": "as §1, with “rat adrenergic α1B receptor obtained” for “rat adrenergic α1A receptor obtained”, “Wistar Rat liver (Garcia-S'ainz, J. A. et al., Biochem. Biophys. Res. Commun. 186:760, 1992; Michel A. D.” for “Wistar Rat submaxillary glands (Michel, A. D.”, “bound. Compounds were screened” for “bound. Compounds of the invention were screened”"}, "[3]": {"target": "T3, human recombinant adrenergic α2C receptor (Homo sapiens, UniProt P18825)", "T3 construct": "expressed in transfected cells; host or cells: insect Sf9 cells", "T3 sequence (P18825 1-462)": "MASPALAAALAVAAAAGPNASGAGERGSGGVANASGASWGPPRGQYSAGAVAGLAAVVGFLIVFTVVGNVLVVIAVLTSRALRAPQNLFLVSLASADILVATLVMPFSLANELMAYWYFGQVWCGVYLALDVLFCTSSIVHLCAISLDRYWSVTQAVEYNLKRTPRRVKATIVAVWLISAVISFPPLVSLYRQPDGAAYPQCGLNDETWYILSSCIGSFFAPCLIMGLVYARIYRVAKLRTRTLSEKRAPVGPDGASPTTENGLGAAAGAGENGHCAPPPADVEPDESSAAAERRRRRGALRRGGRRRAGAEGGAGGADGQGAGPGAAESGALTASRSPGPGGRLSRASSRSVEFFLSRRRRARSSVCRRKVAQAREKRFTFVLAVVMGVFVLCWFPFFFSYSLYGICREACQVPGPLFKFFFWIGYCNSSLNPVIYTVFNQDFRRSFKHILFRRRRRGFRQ", "experiment": "Adrenergic α2C radioligand binding ([3H]MK-912)", "settings": "for inhibition at 1 µM: read-out: Adrenergic α2C, inhibition of ligand binding (1 μM)", "procedure": "To evaluate in radioligand binding assays the activity of compounds of the invention, human recombinant adrenergic α2C receptor expressed in insect Sf9 cells (Uhlen S et al. J Pharmacol Exp Ther. 271:1558, 1994) in a modified Tris-HCl buffer (50 mM Tris-HCl, pH 7.4, 12.5 mM MgCl2, 2 mM EDTA) was used. Compounds of the invention were incubated with 1 nM [^3H]MK-912 for 60 minutes at 25° C. Non-specific binding was estimated in the presence of 10 μM WB-4101. Receptor proteins were filtered and washed, the filters were then counted to determine [^3H]MK-912 specifically bound. Compounds were screened at 1 μM or lower, using 1% DMSO as vehicle. Compounds of the invention were tested in this biochemical assay and percent inhibition of specific binding was determined."}}}
{"smiles": "Cc1ccc2c(c1)c1c(n2CCc2ccccc2)CC2CCC1N2C", "note": "(stereo not drawn) [Compound 2]", "values": [{"measurement": "inhibition at 0.03 µM", "setting": "[1]; read-out: Adrenergic α1A, inhibition of ligand binding (0.03 μM)", "value": 66, "unit": "%"}, {"measurement": "inhibition at 0.3 µM", "setting": "[1]; read-out: Adrenergic α1A, inhibition of ligand binding (0.3 μM)", "value": 97, "unit": "%"}, {"measurement": "inhibition at 1 µM", "setting": "[1]", "value": 98, "unit": "%"}, {"measurement": "inhibition at 0.03 µM", "setting": "[2]; read-out: Adrenergic α1B, inhibition of ligand binding (0.03 μM)", "value": 63, "unit": "%"}, {"measurement": "inhibition at 0.3 µM", "setting": "[2]; read-out: Adrenergic α1B, inhibition of ligand binding (0.3 μM)", "value": 89, "unit": "%"}, {"measurement": "inhibition at 1 µM", "setting": "[2]", "value": 99, "unit": "%"}, {"measurement": "inhibition at 0.03 µM", "setting": "[3]; read-out: Adrenergic α2C, inhibition of ligand binding (0.03 μM)", "value": 14, "unit": "%"}, {"measurement": "inhibition at 0.3 µM", "setting": "[3]; read-out: Adrenergic α2C, inhibition of ligand binding (0.3 μM)", "value": 69, "unit": "%"}, {"measurement": "inhibition at 1 µM", "setting": "[3]", "value": 97, "unit": "%"}]}
{"smiles": "Cc1ccc2c(c1)c1c(n2CCc2ccccc2)CC2CCCC1N2C", "note": "(stereo not drawn) [Compound 56]", "values": [{"measurement": "inhibition at 1 µM", "setting": "[1]", "value": 94, "unit": "%"}, {"measurement": "inhibition at 1 µM", "setting": "[2]", "value": 80, "unit": "%"}, {"measurement": "inhibition at 1 µM", "setting": "[3]", "value": 55, "unit": "%"}]}
{"smiles": "CN1C2CCC1c1c(n(CCc3ccc(F)cc3)c3ccc(Cl)cc13)C2", "note": "(stereo not drawn) [Compound 57]", "values": [{"measurement": "inhibition at 1 µM", "setting": "[1]", "value": 90, "unit": "%"}, {"measurement": "inhibition at 1 µM", "setting": "[2]", "value": 87, "unit": "%"}, {"measurement": "inhibition at 1 µM", "setting": "[3]", "value": 83, "unit": "%"}]}
{"smiles": "CN1C2CCC1c1c(n(CCc3ccc(Cl)cc3)c3ccc(Cl)cc13)C2", "note": "(stereo not drawn) [Compound 58]", "values": [{"measurement": "inhibition at 1 µM", "setting": "[1]", "value": 89, "unit": "%"}, {"measurement": "inhibition at 1 µM", "setting": "[2]", "value": 83, "unit": "%"}, {"measurement": "inhibition at 1 µM", "setting": "[3]", "value": 89, "unit": "%"}]}
